According to paper PMC8624133, “10th Trends in Medical Mycology Held on 8 to 11 October 2021, Aberdeen, Scotland, Organized by the European Confederation of Medical Mycology (ECMM)” (Journal of Fungi, 2021):
≈ marks a conversion by molar mass, not a printed value. Where “and” joins values, the source holds several entries; their conditions need not be identical. Equal values may be shown once.

Assays:
[1] = tested on: Candida sp. and other yeast isolates, planktonic; assay: MIC of catheter yeast isolates, planktonic form; type: cell-based; details: read-out: Minimum Inhibitory Concentrations (MIC)
Rhizopus arrhizus = assay: E test; type: cell-based
C. glabrata = assay: Antifungal susceptibility testing of blood culture isolate; type: cell-based, Candida glabrata; details: Nakaseomyces glabratus
From the text: Case presentation: A patient with a surgically corrected Tetralogy of Fallot and pulmonary valve replacement (BioPulmonic Conduit) was admitted to the cardiology ward for treatment of their progessively worsening symptomatic heart failure. Their medical history reports multiple other co-morbidities including supravalvular (prothetic pulmonary valve) stenosis, supraventricular tachycardia, atrial fibrillation, diabetes mellitus type I, and intellectual disability. No history of IV drug use or recent immunosuppressive therapy was reported. On admission they received diuretic treatment and a percutaneous intervention was planned to treat the supravalvular pulmonary stenosis. However, ten days after admission they developed fever (40.5 °C) with elevated C-reactive protein (237.9 mg/L) and leukocytosis (14.0 × 10^9/L). […] Anidulafungine IV was started and follow-up bloodcultures were taken routinely. The patient improved clinically and their inflammation markers normalized. However, the bloodcultures were persistently positive, albeit with periods of negative cultures, despite adequate treatment with high-dose anidulafungin 200 mg IV daily. International guidelines recommend surgery to treat Candida prostethic valve infective endocarditis and/or long-term suppressive therapy with antifungal drugs. […]

C. auris = assay: EUCAST EDef 7.3.1 MIC and checkerboard microdilution; type: cell-based, Candida auris
Description: Methods: We studied 22 C. auris isolates obtained from different clinical samples from the Hospital La Fe, Valencia, Spain (eight from blood culture, seven from oropharynx and seven from urine cultures). Candida parapsilosis ATCC 22019 and Candida krusei ATCC 6258 were used as quality controls. The minimum inhibitory concentration (MIC) was determined according to the European Committee on Antibiotic Susceptibility Testing (EUCAST) EDef 7.3.1 document. The interaction between citral and the rest of antifungal drugs was assessed by a checkerboard microdilution method. […] The in vitro interaction of the drug combinations was interpreted in terms of the fractional inhibitory concentration index (FICI) as follows: FICI < 1, synergistic; FICI equal to 1, additive; and FICI > 1, indifferent or antagonistic.

C. glabrata isolates = assay: Rapid XTT assay based on EUCAST E.Def 7.3; type: cell-based, Candida glabrata
Candida auris isolates = assay: microbe, parasite or virus in culture; type: cell-based; details: Candidozyma auris; […]; IQR given; read-out: median MIC
C. parapsilosis = assay: ARIA surveillance, CLSI M27 broth microdilution; type: cell-based, Candida parapsilosis
C. tropicalis = type: cell-based, Candida tropicalis; details: all successive strains
Candida non-albicans = assay: In vitro fluconazole susceptibility, neonatal invasive candidiasis; type: cell-based
[2] = tested on: CgCDR1, CgCDR2 and CgSNQ2 genes; assay: Real-time PCR of ATP-binding cassette transporter genes; type: cell-based, Candida glabrata
yeasts = assay: CLSI M27-A3 MIC; type: cell-based
eumycetoma = details: in vivo; cited from earlier work
From the text: Mycetoma: Mycetoma is a chronic, progressive, implantation inflammatory disease characterised by severe and stigmatising deformities, disability, and high morbidity. The disease is caused by fungi (eumycetoma) and several Actinomycetales members (actinomycetoma). Its estimative global burden is 9000 cases. There are no robust epidemiological studies on mycetoma in SA, but it is tconsidered the third most prevalent endemic IM in SA, especially among low socioeconomic adult males living in rural areas from Argentina, Brazil, Colombia and Venezuela, where the principal agents are Madurella spp. a ...

[3] = tested on: A. fumigatus isolates from BAL; assay: Sensititre YeastOne Y010, read according to CLSI (2020); type: cell-based, Aspergillus fumigatus
Description: Materials & Methods: Retrospective evaluation of antifungal susceptibility for A. fumigatus isolates from bronchoalveolar lavage (BAL) fluid in pts with invasive pulmonary aspergillosis was performed. All isolates were obtained from hematological pts admitted to National Research Center for Hematology (Moscow) between 2016 and 2020. All A. fumigatus species were identified by morphology, matrix-assisted laser desorption ionization time of flight mass spectrometry. The azole-resistant strains were identified by ITS, β-tubulin, calmodulin and actine gene sequencing. […] The MIC of antifungal agents were read according to the CLSI (2020). Cyp51A was sequenced to establish the most common resistance mechanisms embedded in azole-resistant A. fumigatus.

[4] = Voriconazole level monitoring with flucloxacillin co-administration; type: in vivo, human
From the text: Methods: Synoptic description of a significant interaction in 2 critically ill patients and analysis of interaction screening in validated data bases.

Aspergillus tubingensis = assay: EUCAST susceptibility; type: cell-based; details: read-out: MIC
Description: The fungus was identified as Aspergillus niger and liposomal amphotericine B was switched to anidulafungin pending susceptibility testing as the patient had pre-existing […] (eGFR CKD-EPI 40 mL/min/1.73 m²). […] Despite increasing the anidulafungin dosage to 200 mg daily and adequate voriconazol levels, serum galactomannan levels remained elevated (index 2.1 at discharge). […] Since no extracardiac sources were found and the patient did well clinically, they were discharched. Anidulafungin was switched to caspofungin to facilitate ongoing IV treatment in the outpatient setting. […] The patient died shortly after. Obduction was not performed.

F. solani (FS) biofilms = assay: Mature biofilm damage, XTT metabolic reduction assay; details: Fusarium solani, 24 h, read-out: BF MIC50
Asp. niger = assay: Triazole resistance agar screening, four-well plate; details: RPMI agar, 1 µg/mL, 14 isolates
Description: All the isolates were identified phenotypically. […] Fungal spores were suspended in normal saline (0.85%) and adjusted to 0.5 McFarland and 50 μL was plated in each well. […] Plates were incubated at 35–37 °C for 72 h in ambient air. The presence or absence of growth was observed visually at 24 h, 48 h, and 72 h.

C[C@@H]1[C@H](O)[C@@H](C)/C=C/C=C/C=C/C=C/C=C/C=C/C=C/[C@H](O[C@@H]2O[C@H](C)[C@@H](O)[C@H](N)[C@@H]2O)C[C@@H]2O[C@](O)(C[C@@H](O)C[C@@H](O)[C@H](O)CC[C@@H](O)C[C@@H](O)CC(=O)O[C@H]1C)C[C@H](O)[C@H]2C(=O)O [amphotericin B]
MIC [1]: 30 to 1000 µg/mL | MIC (Rhizopus arrhizus): > 32 µg/mL | MIC (C. glabrata): 0.38 µg/mL (≈ 0.411 µM) | MIC of amphotericin B in combination with citral (C. auris): 0.016 µg/mL | MIC (C. auris; Candidozyma auris, 22 clinical isolates): 0.25 µg/mL

OC(Cn1cncn1)(Cn1cncn1)c1ccc(F)cc1F [fluconazole]
XTT-absorbance in drug-treated wells (C. glabrata isolates): 0.67 ± 0.15 and 0.51 ± 0.08 | MIC (Candida auris isolates): 48 µg/mL (≈ 157 µM) | susceptibility (C. parapsilosis; Italy): 52.4% | susceptibility (C. parapsilosis; Turkey): 76.2% | overall susceptibility (C. parapsilosis; all countries): 88.5% | susceptibility (C. parapsilosis; all countries except Italy and Turkey): 100% | susceptibility category (C. tropicalis): susceptible | dose-dependent susceptible pathogens (Candida non-albicans): 6% | in vitro resistant pathogens (Candida non-albicans): 6% | expression of CgCDR1, CgCDR2 and CgSNQ2 genes [2]: over-expressed

CCC(C)n1ncn(-c2ccc(N3CCN(c4ccc(OCC5COC(Cn6cncn6)(c6ccc(Cl)cc6Cl)O5)cc4)CC3)cc2)c1=O (centres unmarked) [itraconazole]
MIC (yeasts; four sensitive isolates): 0.03 µg/mL (≈ 0.0425 µM) | MIC (yeasts; the other isolates, drug resistance): 0.06 to 16 µg/mL (≈ 0.085 to 22.7 µM) | Cure rate (eumycetoma): 25–35%

C[C@@H](c1ncncc1F)[C@](O)(Cn1cncn1)c1ccc(F)cc1F [voriconazole]
isolates with elevated MIC ([3]; 2 of 35): 5.7% | MIC ([3]; Aspergillus fumigatus, BAL, read-out: elevated minimum inhibitory concentrations (MIC)): > 8 µg/mL | voriconazole level ([4]; Case 1, 2 days after flucloxacillin interruption, 8 mg/kg bid): < 0.2 µg/mL | voriconazole level ([4]; Case 1, day 10 of combination with high dose flucloxacillin, 4 mg/kg bid): < 0.2 µg/mL | voriconazole level ([4]; Case 1, subsequently after 3 days): 3 µg/mL | voriconazole level ([4]; Case 2, after flucloxacillin stop and dose increase to 6 mg/kg bid): 4.2 µg/mL | voriconazole level ([4]; Case 2, before flucloxacillin): 3.5 µg/mL | voriconazole level ([4]; Case 2, during high dose flucloxacillin, two levels): < 0.5 µg/mL | voriconazole level ([4]; Case 2, further increase, toxic level): 15.1 µg/mL | voriconazole level ([4]; Case 2, intravenous maintenance 4 mg/kg bid): 3.2 µg/mL | MIC (Aspergillus tubingensis): 1 µg/mL (≈ 2.86 µM) | MIC50 (F. solani (FS) biofilms): > 256 µg/mL | isolates with growth only in voriconazole well, n (%) (Asp. niger; 48 h): 0 | isolates with growth only in voriconazole well, n (%) (Asp. niger; 72 h): 2 (14.28)
